According to PMC11134331, “Cell-active small molecule inhibitors validate the SNM1A DNA repair nuclease as a cancer target” (Chemical Science, 2024):

Experiments:
[1] = tested on: γH2AX and EGFP-SNM1A foci in U2OS cells; assay: microscopic analysis of damage-induced subnuclear foci, U2OS cells expressing EGFP-SNM1A; type: cell-based, human
Experimental: To this end, cells stably expressing N-terminally EGFP-tagged SNM1A (EGFP-SNM1A) were treated with 50 μM cisplatin alone, 19 (50 μM), or with a combination of both compounds. It is known that on treatment of cells with DNA crosslinking agents, SNM1A forms subnuclear foci that are associated with ongoing sites of DNA repair.[37] […] As previously established, cisplatin treatment efficiently induces co-localisation of EGFP-SNM1A foci and γH2AX foci within 4 hours following treatment, marking sites of cisplatin damage and its repair (Fig. 6C–E). These largely resolved 24 hours post-treatment, again consistent with previous studies.[16,37] Co-treatment of cells with 19 and cisplatin saw a robust induction of SNM1A foci, consistent with the SNM1A activity being dispensable for its localisation to sites of crosslink repair, and γH2AX foci formation (Fig. 6C–E). […] This clear persistence of repair intermediates and trapping of EGFP-SNM1A at the sites of these repair intermediate implies that 19 engages with SNM1A in a cellular context, delaying the completion of cisplatin crosslink repair, which, in turn, results in the sensitisation of cells to cisplatin.
To assess the number of nuclear foci following cisplatin/inhibitor treatments, cells were plated in glass bottom dishes (as above) and allowed to attach. Following treatment, cells were fixed with 4% (v/v) formaldehyde in PBS, blocked with immunofluoresence (IF) blocking buffer (5% horse serum, 1% saponin in PBS) for 1 h, then incubated with primary antibodies at the desired concentrations in IF blocking buffer (overnight, 4 °C). After washing cells three times with PBS, cells were incubated with secondary antibodies for 2–4 hours in IF blocking buffer, washed a further 3 times with PBS then stained with Hoechst 333 258 (1 μg mL^−1 in PBS) for 30 minutes before a further three washes (all washes and incubations were performed at room temperature, unless otherwise stated).
Confocal images were obtained with a Plan APO 63X 1.40NA oil immersion objective, a pinhole setting of 1 AU, bandpass emission settings of 410–468 nm for Hoechst, 490–544 nm for EGFP, 579–624 nm for RFP or Alexa 568, and 633–695 nm for Alexa 647, a projected pixel dimension of around 110 nm × 110 nm, a pixel dwell time of 1.35 μs, and with a line averaging setting of 2. In order to ensure sufficient cell numbers (N > 300), images were acquired in a tiled 5 × 5 format corresponding to an image area of about 0.65 mm × 0.65 mm. Images were imported into ImageJ and foci were counted using a macro adjusting for staining levels between experiments. Anti-γH2AX antibodies were a mouse monoclonal (Millipore; JBW301).

SNM1A = molecular target: T1, SNM1A (Homo sapiens, UniProt Q6PJP8); assay: real-time fluorescence-based nuclease assay, SNM1A; type: biochemical; parameters: DNA encoding for the MBL and β-CASP domains of SNM1A (aa 676–1040) was cloned into the baculovirus transfer vector pFB-LIC-Bse; inferred from vector pFB-LIC-Bse and the IMAC purification; made in house; host or cells: Sf9 insect cells (baculovirus); conditions: SNM1A IC50, real-time fluorescence-based nuclease assay; resynthesised compounds
T1 sequence (Q6PJP8 676-1040): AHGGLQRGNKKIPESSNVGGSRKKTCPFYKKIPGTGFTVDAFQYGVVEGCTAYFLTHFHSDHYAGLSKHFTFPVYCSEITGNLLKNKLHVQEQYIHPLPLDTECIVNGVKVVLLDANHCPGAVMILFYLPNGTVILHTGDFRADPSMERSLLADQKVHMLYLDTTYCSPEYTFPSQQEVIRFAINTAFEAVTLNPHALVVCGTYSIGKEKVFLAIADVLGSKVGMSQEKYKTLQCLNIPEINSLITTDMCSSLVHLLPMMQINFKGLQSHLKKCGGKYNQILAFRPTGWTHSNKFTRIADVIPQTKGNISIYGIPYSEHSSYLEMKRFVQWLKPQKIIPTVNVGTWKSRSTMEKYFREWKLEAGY
Experimental: In brief, the fluorescence-based nuclease assay utilises a chemically modified 20-nucleotide ssDNA substrate with a fluorescein isothiocyanate (FITC) derived 5′-group and an internal black-hole-quencher-1 (BHQ-1), located eight nucleotides distal to the fluorescein group. In the intact substrate the BHQ-1 suppresses fluorescence, however, exonucleolytic digestion of the substrate from the 5′ end by SNM1A uncouples the BHQ-1 and FITC moieties (see Fig. 1D). Spectra were measured every 140 seconds with an increase in fluorescence indicating enzymatic activity by SNM1A (concentration: 0.1 nM).
Fluorescence-based nuclease digestion SNM1A–C assays were performed as described.[30,45] In the case of SNM1A and SNM1B, a 20-mer oligonucleotide with a 5′ FITC-conjugated-T and an internal BHQ-1 (black hole quencher) conjugated-T, eight nucleotides distal (3′) to the fluor was utilised; whereas for SNM1C a 20-mer oligonucleotide with a 5′ FITC-conjugated-T and a 3′ BHQ-1(black hole quencher) was used to capture all possible endonucleolytic incisions. Reactions (25 μL) were performed in 384 well microplates in nuclease buffer (20 mM HEPES-KOH pH 7.5, 50 mM KCl, 10 mM MgCl2, 0.5 mM TCEP, 0.05% (v/v) Triton-X, 0.1 mg mL^−1 BSA, 5% (v/v) glycerol) with SNM1A/B/C (0.1 nM SNM1A, 0.5 nM SNM1B and 1 nM SNM1C) as indicated. Proteins were incubated for 10 min at RT with the stated compound where applicable, before the reaction was initiated with the addition of 10 nM DNA substrate. […] Fluorescence spectra were measured every 140 s, for 35 min, at 37 °C. The fluorescence intensity of each well was plotted against compound concentration and fitted using a log (inhibitor) response curve using GraphPad Prism software (GraphPad Software, Inc., La Jolla, CA, USA).

## C[C@H](Nc1nc(NCc2ccco2)nc2ccc(Cl)cc12)C(=O)NO [compound 19]
[1]; U2OS EGFP-SNM1A, 50 μM compound + 50 μM cisplatin
  EGFP-SNM1A and γH2AX foci on co-treatment with cisplatin: persisted at 24 hours
[1]; U2OS EGFP-SNM1A, 50 μM compound alone
  induction of EGFP-SNM1A and γH2AX foci by compound alone: did not induce
[1]; U2OS, cisplatin treated with pretreatment with 50 μM 19
  average number of γH2AX foci at 24 hours: 81.6 ± 1.7 foci
[1]; U2OS, cisplatin treated, 24 hours
  increase of average γH2AX foci number following pretreatment: 4 fold
SNM1A
  IC50: 44 µM
